Assay results as given in patent publication US12655116B2, “Substituted isophthalic acid diamides” (Bayer Aktiengesellschaft, priority 2020, dated 2026).

Columns and labels:
ABUTH [1] = assay: Pre-emergence herbicidal action against ABUTH; assay type: in vivo, Abutilon theophrasti
In short: (§1)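 Pre-emergence soil-surface spray of formulated compound (WP or EC; 600 to 800 l/ha; 0.2% wetting agent) over seeds sown in sandy loam. After 3 weeks under greenhouse conditions, damage is estimated visually in percent against untreated plants.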

ALOMY = assay: Pre-emergence herbicidal action against ALOMY; assay type: in vivo, Alopecurus myosuroides; settings: 80 g/ha, pre-emergence, scored visually after 3 weeks vs untreated controls (100% = plants have died, 0% = like control plants)
In short: as §1

AMARE [2] = assay: Pre-emergence herbicidal action against AMARE; assay type: in vivo, Amaranthus retroflexus
In short: as §1

AVEFA = assay: Pre-emergence herbicidal action against AVEFA; assay type: in vivo, Avena fatua; settings: 80 g/ha, pre-emergence
In short: as §1

ECHCG [3] = assay: Pre-emergence herbicidal action against ECHCG; assay type: in vivo, Echinochloa crus-galli
In short: as §1

MATIN [4] = assay: Pre-emergence herbicidal action against MATIN; assay type: in vivo, Matricaria inodora
In short: as §1

PHBPU [5] = assay: Pre-emergence herbicidal action against PHBPU; assay type: in vivo, Pharbitis purpurea; settings: dosage 80 g/ha
In short: as §1

POLCO = assay: Pre-emergence herbicidal action against POLCO; assay type: in vivo, Polygonum convolvulus
In short: as §1

SETVI [6] = assay: Pre-emergence herbicidal action against SETVI; assay type: in vivo, Setaria viridis; settings: dosage 80 g/ha
In short: as §1

VERPE [7] = assay: Pre-emergence herbicidal action against VERPE; assay type: in vivo, Veronica persica
In short: as §1

VIOTR [8] = assay: Pre-emergence herbicidal action against VIOTR; assay type: in vivo, Viola tricolor
In short: as §1

DIGSA [9] = assay: Pre-emergence herbicidal action against DIGSA; assay type: in vivo, Digitaria sanguinalis
In short: as §1

ABUTH [10] = assay: Post-emergence herbicidal action against ABUTH; assay type: in vivo, Abutilon theophrasti; settings: visual assessment about 3 weeks after treatment vs untreated controls
In short: (§2)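 Greenhouse plants in sandy loam were sprayed at the one-leaf stage, 2 to 3 weeks after sowing, with WP or EC formulations as aqueous suspension or emulsion (600 to 800 l/ha water, 0.2% wetting agent). Visual damage was scored about 3 weeks later versus untreated controls, 0% = like control, 100% = dead.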

AMARE [11] = assay: Post-emergence herbicidal action against AMARE; assay type: in vivo, Amaranthus retroflexus; settings: Amaranthus retroflexus, 504 h, 20 g/ha, visual assessment about 3 weeks after treatment, 100% = plants have died, 0% = like control plants
In short: as §2

ECHCG [12] = assay: Post-emergence herbicidal action against ECHCG; assay type: in vivo, Echinochloa crus-galli
In short: as §2

MATIN [13] = assay: Post-emergence herbicidal action against MATIN; assay type: in vivo, Matricaria inodora
In short: as §2

PHBPU [14] = assay: Post-emergence herbicidal action against PHBPU; assay type: in vivo, Pharbitis purpurea; settings: dosage 20 g/ha
In short: as §2

SETVI [15] = assay: Post-emergence herbicidal action against SETVI; assay type: in vivo, Setaria viridis; settings: dosage 20 g/ha
In short: as §2

VERPE [16] = assay: Post-emergence herbicidal action against VERPE; assay type: in vivo, Veronica persica
In short: as §2

VIOTR [17] = assay: Post-emergence herbicidal action against VIOTR; assay type: in vivo, Viola tricolor
In short: as §2

DIGSA [18] = assay: Post-emergence herbicidal action against DIGSA; assay type: in vivo, Digitaria sanguinalis; settings: Digitaria sanguinalis, 504 h
In short: as §2

[19] = Tripleurospermum inodorum, 504 h, dosage 20 g/ha
[20] = 80 g/ha, scored visually after 3 weeks vs untreated controls (100% = plants have died, 0% = like control plants)

SMILES: CCNC(=O)c1c(C(F)F)ccc(C(=O)Nc2nnnn2C)c1CC [Example 1-278]
- pest or weed control at 80 g/ha (ABUTH [1]; Abutilon theophrasti, 504 h, 80 g/ha, scored visually after 3 weeks vs untreated controls (100% = plants have died, 0% = like control plants)): 100%
- pest or weed control at 20 g/ha (ABUTH [1]; Abutilon theophrasti, 504 h, dosage 20 g/ha, scored visually after 3 weeks vs untreated controls, 100% = plants have died, 0% = like control plants, read-out: Pre-emergence action against ABUTH (herbicidal activity in percent)): 90%
- pest or weed control at 80 g/ha (ALOMY; Alopecurus myosuroides, 504 h): 90%
- pest or weed control at 20 g/ha (AMARE [2]; Amaranthus retroflexus, 504 h, 20 g/ha, scored visually after 3 weeks vs untreated controls, 100% = plants have died, 0% = like control plants): 100%
- pest or weed control at 80 g/ha (AMARE [2]; Amaranthus retroflexus, 504 h, 80 g/ha, scored visually after 3 weeks vs untreated controls, 100% = plants have died, 0% = like control plants): 100%
- pest or weed control at 80 g/ha (AVEFA; Avena fatua, 504 h): 90%
- pest or weed control at 20 g/ha (ECHCG [3]; Echinochloa crus-galli, 504 h, 20 g/ha): 90%
- pest or weed control at 80 g/ha (ECHCG [3]; Echinochloa crus-galli, 504 h, 80 g/ha): 100%
- pest or weed control at 20 g/ha (MATIN [4]; [19]): 100%
- pest or weed control at 80 g/ha (MATIN [4]; Tripleurospermum inodorum, 504 h, dosage 80 g/ha): 100%
- pest or weed control at 80 g/ha (PHBPU [5]; Ipomoea purpurea, 504 h): 90%
- pest or weed control at 20 g/ha (POLCO; Fallopia convolvulus, 504 h, dosage 20 g/ha): 90%
- pest or weed control at 80 g/ha (POLCO; Fallopia convolvulus, 504 h, dosage 80 g/ha): 100%
- pest or weed control at 80 g/ha (SETVI [6]; Setaria viridis, 504 h): 100%
- pest or weed control at 80 g/ha (VERPE [7]; Veronica persica, 504 h, dosage 80 g/ha): 100%
- pest or weed control at 20 g/ha (VIOTR [8]; Viola tricolor, 504 h, dosage 20 g/ha): 100%
- pest or weed control at 80 g/ha (VIOTR [8]; Viola tricolor, 504 h, dosage 80 g/ha): 100%
- pest or weed control at 20 g/ha (DIGSA [9]; Digitaria sanguinalis, 504 h, dosage 20 g/ha): 100%
- pest or weed control at 80 g/ha (DIGSA [9]; Digitaria sanguinalis, 504 h, dosage 80 g/ha): 100%
- pest or weed control at 5 g/ha (ABUTH [10]; Abutilon theophrasti, 504 h, dosage 5 g/ha): 80%
- pest or weed control at 20 g/ha (ABUTH [10]; Abutilon theophrasti, 504 h, dosage 20 g/ha): 90%
- pest or weed control at 20 g/ha (AMARE [11]): 90%
- pest or weed control at 5 g/ha (ECHCG [12]; Echinochloa crus-galli, 504 h, dosage 5 g/ha): 90%
- pest or weed control at 20 g/ha (ECHCG [12]; Echinochloa crus-galli, 504 h, dosage 20 g/ha): 90%
- pest or weed control at 5 g/ha (MATIN [13]; Tripleurospermum inodorum, 504 h, dosage 5 g/ha): 80%
- pest or weed control at 20 g/ha (MATIN [13]; [19]): 90%
- pest or weed control at 20 g/ha (PHBPU [14]; Ipomoea purpurea, 504 h): 90%
- pest or weed control at 20 g/ha (SETVI [15]; Setaria viridis, 504 h): 90%
- pest or weed control at 5 g/ha (VERPE [16]; Veronica persica, 504 h, 5 g/ha): 80%
- pest or weed control at 20 g/ha (VERPE [16]; Veronica persica, 504 h, 20 g/ha): 90%
- pest or weed control at 5 g/ha (VIOTR [17]; Viola tricolor, 504 h, 5 g/ha): 90%
- pest or weed control at 20 g/ha (VIOTR [17]; Viola tricolor, 504 h, 20 g/ha): 90%
- pest or weed control at 5 g/ha (DIGSA [18]; 5 g/ha): 90%
- pest or weed control at 20 g/ha (DIGSA [18]; 20 g/ha): 90%

SMILES: CCNC(=O)c1c(C(F)F)ccc(C(=O)Nc2nnnn2CC)c1OC [Example 2-73]
- Pre-emergence action against ABUTH (herbicidal activity) (ABUTH [1]; [20]): 100%
- Pre-emergence action against ABUTH (herbicidal activity in percent) (ABUTH [1]; dosage 20 g/ha, scored visually after 3 weeks vs untreated controls, 100% = plants have died, 0% = like control plants): 100%
- Pre-emergence action against ALOMY (herbicidal activity) (ALOMY): 100%
- Pre-emergence action against AMARE in % (AMARE [2]; 20 g/ha, scored visually after 3 weeks vs untreated controls, 100% = plants have died, 0% = like control plants): 100%
- Pre-emergence action against AMARE in % (AMARE [2]; [20]): 100%
- Pre-emergence action against AVEFA in % (AVEFA): 80%
- Pre-emergence action against ECHCG in % (ECHCG [3]; 80 g/ha): 100%
- Pre-emergence action against MATIN in % (MATIN [4]; dosage 20 g/ha): 100%
- Pre-emergence action against MATIN in % (MATIN [4]; dosage 80 g/ha): 100%
- Pre-emergence action against PHBPU in % (PHBPU [5]): 80%
- Pre-emergence action against POLCO in % (POLCO; dosage 80 g/ha): 80%
- Pre-emergence action against SETVI in % (SETVI [6]): 100%
- Pre-emergence action against VERPE in % (VERPE [7]; dosage 20 g/ha): 90%
- Pre-emergence action against VERPE in % (VERPE [7]; dosage 80 g/ha): 90%
- Pre-emergence action against VIOTR in % (VIOTR [8]; dosage 20 g/ha): 90%
- Pre-emergence action against VIOTR in % (VIOTR [8]; dosage 80 g/ha): 100%
- Pre-emergence action against DIGSA in % (DIGSA [9]; dosage 20 g/ha): 90%
- Pre-emergence action against DIGSA in % (DIGSA [9]; dosage 80 g/ha): 100%
- Post-emergence action against ABUTH in % (ABUTH [10]; dosage 5 g/ha): 80%
- Post-emergence action against ABUTH in % (ABUTH [10]; dosage 20 g/ha): 80%
- Post-emergence action against ECHCG in % (ECHCG [12]; dosage 5 g/ha): 80%
- Post-emergence action against ECHCG in % (ECHCG [12]; dosage 20 g/ha): 80%
- Post-emergence action against MATIN in % (MATIN [13]; dosage 5 g/ha): 80%
- Post-emergence action against MATIN in % (MATIN [13]; dosage 20 g/ha): 80%
- Post-emergence action against PHBPU in % (PHBPU [14]): 80%
- Post-emergence action against SETVI in % (SETVI [15]): 100%
- Post-emergence action against VERPE in % (VERPE [16]; 5 g/ha): 80%
- Post-emergence action against VERPE in % (VERPE [16]; 20 g/ha): 90%
- Post-emergence action against VIOTR in % (VIOTR [17]; 20 g/ha): 100%
